Measurements as given in US8796245B2 (TetraPhase Pharmaceuticals, Inc., priority 2008, dated 2014).
Values after ≈ are worked out from the molar mass of the structure shown.

Assays:
Assay type in all cases: cell-based
[1] = test system: E. coli ATCC 25922 (EC107); experiment: Minimum inhibitory concentration assay, EC107; conditions: Escherichia coli, ATCC25922; E. coli ATCC 25922, wt; read-out: MICs EC107
Procedure: (§1) Frozen bacterial strains were thawed and subcultured onto Mueller Hinton Broth (MHB) or other appropriate media (Streptococcus requires blood and Haemophilus requires hemin and NAD). Following incubation overnight, the strains were subcultured onto Mueller Hinton Agar and again incubated overnight. […] Isolated colonies were selected to prepare a starting inoculum equivalent to a 0.5 McFarland standard. The starting inoculum was diluted 1:125 using MHB for further use. Test compounds were prepared by dilution in sterile water to a final concentration of 5.128 mg/mL. Antibiotics (stored frozen, thawed and used within 3 hours of thawing) and compounds were further diluted to the desired working concentrations.
(§2) The assays were run as follows. Fifty μL of MHB was added to wells 2-12 of a 96-well plate. One hundred […] of appropriately diluted antibiotics was added to well 1. Fifty μL of antibiotics was removed from well 1 and added to well 2 and the contents of well 2 mixed by pipetting up and down five times. Fifty μL of the mixture in well 2 was removed and added to well 3 and mixed as above. Serial dilutions were continued in the same manner through well 12. Fifty μL was removed from well 12 so that all contained 50 μL. Fifty μL of the working inoculum was then added to all test wells. A growth control well was prepared by adding 50 μL of working inoculum and 50 μL of MHB to an empty well. The plates were then incubated at 37° C. overnight, removed from the incubator and each well was read on a plate reading mirror. The lowest concentration (MIC) of test compound that inhibited the growth of the bacteria was recorded.

[2] = test system: S. aureus ATCC 29213 (SA101, MSSA); experiment: Minimum inhibitory concentration assay, SA101; conditions: Staphylococcus aureus; S. aureus ATCC 29213, MSSA control; read-out: MICs SA101
Procedure: as §1, §2

[3] = test system: S. pneumoniae ATCC 49619 (SP106); experiment: Minimum inhibitory concentration assay, SP106; conditions: Streptococcus pneumoniae, ATCC49619; S. pneumoniae ATCC 49619, wt; read-out: MICs SP106
Procedure: as §1, §2

[4] = test system: E. coli EC155 (tet resistant: tetA efflux); experiment: microbe, parasite or virus in culture; conditions: Escherichia coli; E. coli tet resistant: tetA (efflux); read-out: MICs EC155
Procedure: as §1, §2

[5] = test system: S. aureus SA158 (tet resistant: tetK efflux); experiment: microbe, parasite or virus in culture; conditions: Staphylococcus aureus, read-out: MICs SA158
Procedure: as §1, §2

[6] = test system: K. pneumoniae KP153 (tet resistant: tetA efflux); experiment: microbe, parasite or virus in culture; conditions: Klebsiella pneumoniae, read-out: MICs KP153
Procedure: as §1, §2

[7] = test system: P. aeruginosa ATCC 27853 (PA111); experiment: Minimum inhibitory concentration assay, PA111; conditions: Pseudomonas aeruginosa, ATCC27853; P. aeruginosa ATCC 27853, wt; read-out: MICs PA111
Procedure: as §1, §2

[8] = test system: A. baumanii ATCC 19606 (AB110); experiment: Minimum inhibitory concentration assay, AB110; conditions: Acinetobacter baumannii, ATCC19606; A. baumanii ATCC 19606, wt; read-out: MICs AB110
Procedure: as §1, §2

[9] = test system: E. cloacae ATCC 13047 (EC108); experiment: Minimum inhibitory concentration assay, EC108; conditions: Enterobacter cloacae, ATCC13047; E. cloacae ATCC 13047, wt; read-out: MICs EC108
Procedure: as §1, §2

[10] = test system: K. pneumoniae ATCC 13883 (KP109); experiment: Minimum inhibitory concentration assay, KP109; conditions: Klebsiella pneumoniae, ATCC13883; K. pneumoniae ATCC 13883, wt; read-out: MICs KP109
Procedure: as §1, §2

[11] = test system: S. pneumoniae SP160 (tet resistant: tet M); experiment: Minimum inhibitory concentration assay, SP160; conditions: Streptococcus pneumoniae, read-out: MICs SP160
Procedure: as §1, §2

[12] = test system: E. faecalis ATCC 29212 (EF103); experiment: Minimum inhibitory concentration assay, EF103; conditions: Enterococcus faecalis, ATCC29212, read-out: MICs EF103
Procedure: as §1, §2

[13] = test system: S. aureus SA161 (tet resistant: tet(M) ribosomal protection); experiment: Minimum inhibitory concentration assay, SA161; conditions: Staphylococcus aureus, read-out: MICs SA161
Procedure: as §1, §2

[14] = test system: S. aureus ATCC 13709 (SA100, MSSA, Smith strain); experiment: Minimum inhibitory concentration assay, SA100; conditions: Staphylococcus aureus; S. aureus ATCC 13709, MSSA Smith strain; read-out: MICs SA100
Procedure: as §1, §2

[15] = test system: E. faecalis EF159 (tet resistant: tetM); experiment: Minimum inhibitory concentration assay, EF159; conditions: Enterococcus faecalis, read-out: MICs EF159
Procedure: as §1, §2

## CC(C)CNCC(=O)Nc1cc(F)c2c(c1O)C(=O)C1=C(O)[C@]3(O)C(=O)C(C(N)=O)=C(O)[C@@H](N(C)C)[C@@H]3C[C@@H]1C2 [Compound 19]
[1]
  MIC: 0.25 µg/mL (≈ 0.446 µM)
[2]
  MIC: 0.125 µg/mL (≈ 0.223 µM)
[3]
  MIC: ≤ 0.0156 µg/mL
[4]
  MIC: 4 µg/mL (≈ 7.14 µM)
[5]
  MIC: 0.25 µg/mL (≈ 0.446 µM)
[6]
  MIC: 4 µg/mL (≈ 7.14 µM)
[7]
  MIC: 16 µg/mL (≈ 28.5 µM)
[8]
  MIC: 0.25 µg/mL (≈ 0.446 µM)
[9]
  MIC: 2 µg/mL (≈ 3.57 µM)
[10]
  MIC: 1 µg/mL (≈ 1.78 µM)
[11]
  MIC: ≤ 0.0156 µg/mL
[12]
  MIC: ≤ 0.0156 µg/mL
[13]
  MIC: 0.25 µg/mL (≈ 0.446 µM)
[14]
  MIC: 0.25 µg/mL (≈ 0.446 µM)
[15]
  MIC: 0.125 µg/mL (≈ 0.223 µM)

## CN(C)[C@@H]1C(O)=C(C(N)=O)C(=O)[C@@]2(O)C(O)=C3C(=O)c4c(O)c(NC(=O)CNC5CC5)cc(F)c4C[C@H]3C[C@@H]12 [Compound 17]
[1]
  MIC: 2 µg/mL (≈ 3.67 µM)
[2]
  MIC: 0.25 µg/mL (≈ 0.459 µM)
[3]
  MIC: 0.0625 µg/mL (≈ 0.115 µM)
[4]
  MIC: 32 µg/mL (≈ 58.8 µM)
[5]
  MIC: 2 µg/mL (≈ 3.67 µM)
[6]
  MIC: 32 µg/mL (≈ 58.8 µM)
[7]
  MIC: 32 µg/mL (≈ 58.8 µM)
[8]
  MIC: 0.5 µg/mL (≈ 0.918 µM)
[9]
  MIC: 8 µg/mL (≈ 14.7 µM)
[10]
  MIC: 4 µg/mL (≈ 7.35 µM)
[11]
  MIC: 0.0625 µg/mL (≈ 0.115 µM)
[12]
  MIC: 0.25 µg/mL (≈ 0.459 µM)
[13]
  MIC: 1 µg/mL (≈ 1.84 µM)
[14]
  MIC: 0.5 µg/mL (≈ 0.918 µM)
[15]
  MIC: 1 µg/mL (≈ 1.84 µM)

## CN(C)[C@@H]1C(O)=C(C(N)=O)C(=O)[C@@]2(O)C(O)=C3C(=O)c4c(O)c(NC(=O)CNC5CCCC5)cc(F)c4C[C@H]3C[C@@H]12 [Compound 18]
[1]
  MIC: 0.125 µg/mL (≈ 0.218 µM)
[2]
  MIC: 0.0625 µg/mL (≈ 0.109 µM)
[3]
  MIC: ≤ 0.0156 µg/mL
[4]
  MIC: 4 µg/mL (≈ 6.99 µM)
[5]
  MIC: 0.125 µg/mL (≈ 0.218 µM)
[6]
  MIC: 4 µg/mL (≈ 6.99 µM)
[7]
  MIC: 16 µg/mL (≈ 27.9 µM)
[8]
  MIC: 0.25 µg/mL (≈ 0.437 µM)
[9]
  MIC: 0.5 µg/mL (≈ 0.873 µM)
[10]
  MIC: 0.5 µg/mL (≈ 0.873 µM)
[11]
  MIC: ≤ 0.0156 µg/mL
[12]
  MIC: ≤ 0.0156 µg/mL
[13]
  MIC: 0.0625 µg/mL (≈ 0.109 µM)
[14]
  MIC: ≤ 0.0156 µg/mL
[15]
  MIC: 0.0313 µg/mL (≈ 0.0547 µM)

## CN(C)[C@@H]1C(O)=C(C(N)=O)C(=O)[C@@]2(O)C(O)=C3C(=O)c4c(O)c(NC(=O)CN5CCOCC5)cc(F)c4C[C@H]3C[C@@H]12 [Compound 44]
[1]
  MIC: 32 µg/mL (≈ 55.7 µM)
[2]
  MIC: 4 µg/mL (≈ 6.96 µM)
[3]
  MIC: 0.5 µg/mL (≈ 0.87 µM)
[4]
  MIC: > 32 µg/mL
[5]
  MIC: 8 µg/mL (≈ 13.9 µM)
[6]
  MIC: > 32 µg/mL
[7]
  MIC: > 32 µg/mL
[8]
  MIC: 8 µg/mL (≈ 13.9 µM)
[9]
  MIC: > 32 µg/mL
[10]
  MIC: > 32 µg/mL
[11]
  MIC: 1 µg/mL (≈ 1.74 µM)
[12]
  MIC: 8 µg/mL (≈ 13.9 µM)
[13]
  MIC: 8 µg/mL (≈ 13.9 µM)
[14]
  MIC: 4 µg/mL (≈ 6.96 µM)
[15]
  MIC: 8 µg/mL (≈ 13.9 µM)

## CN(C)[C@@H]1C(O)=C(C(N)=O)C(=O)[C@@]2(O)C(O)=C3C(=O)c4c(O)c(NC(=O)CN5CC[C@@H](F)C5)cc(F)c4C[C@H]3C[C@@H]12 [Compound 35]
[1]
  MIC: 1 µg/mL (≈ 1.73 µM)
[2]
  MIC: 0.25 µg/mL (≈ 0.434 µM)
[3]
  MIC: 0.016 µg/mL (≈ 0.0278 µM)
[4]
  MIC: 16 µg/mL (≈ 27.8 µM)
[5]
  MIC: 0.5 µg/mL (≈ 0.867 µM)
[6]
  MIC: 8 µg/mL (≈ 13.9 µM)
[7]
  MIC: > 32 µg/mL
[8]
  MIC: 0.25 µg/mL (≈ 0.434 µM)
[9]
  MIC: 8 µg/mL (≈ 13.9 µM)
[10]
  MIC: 4 µg/mL (≈ 6.94 µM)
[11]
  MIC: 0.016 µg/mL (≈ 0.0278 µM)
[12]
  MIC: 0.125 µg/mL (≈ 0.217 µM)
[13]
  MIC: 0.5 µg/mL (≈ 0.867 µM)
[14]
  MIC: 0.25 µg/mL (≈ 0.434 µM)
[15]
  MIC: 0.25 µg/mL (≈ 0.434 µM)

## CCCCCCCNCC(=O)Nc1cc(F)c2c(c1O)C(=O)C1=C(O)[C@]3(O)C(=O)C(C(N)=O)=C(O)[C@@H](N(C)C)[C@@H]3C[C@@H]1C2 [Compound 29]
[1]
  MIC: 8 µg/mL (≈ 13.3 µM)
[2]
  MIC: 4 µg/mL (≈ 6.64 µM)
[3]
  MIC: 1 µg/mL (≈ 1.66 µM)
[4]
  MIC: 8 µg/mL (≈ 13.3 µM)
[5]
  MIC: 2 µg/mL (≈ 3.32 µM)
[6]
  MIC: 8 µg/mL (≈ 13.3 µM)
[7]
  MIC: > 32 µg/mL
[8]
  MIC: 8 µg/mL (≈ 13.3 µM)
[9]
  MIC: 8 µg/mL (≈ 13.3 µM)
[10]
  MIC: 8 µg/mL (≈ 13.3 µM)
[11]
  MIC: 1 µg/mL (≈ 1.66 µM)
[12]
  MIC: 2 µg/mL (≈ 3.32 µM)
[13]
  MIC: 4 µg/mL (≈ 6.64 µM)
[14]
  MIC: 4 µg/mL (≈ 6.64 µM)
[15]
  MIC: 2 µg/mL (≈ 3.32 µM)

## CN(C)[C@@H]1C(O)=C(C(N)=O)C(=O)[C@@]2(O)C(O)=C3C(=O)c4c(O)c(NC(=O)CN5CCCC5)cc(F)c4C[C@H]3C[C@@H]12 [Compound 34]
[1]
  MIC: 0.25 µg/mL (≈ 0.448 µM)
[2]
  MIC: ≤ 0.0156 µg/mL
[3]
  MIC: ≤ 0.0156 µg/mL
[4]
  MIC: 2 µg/mL (≈ 3.58 µM)
[5]
  MIC: 0.125 µg/mL (≈ 0.224 µM)
[6]
  MIC: 2 µg/mL (≈ 3.58 µM)
[7]
  MIC: 16 µg/mL (≈ 28.6 µM)
[8]
  MIC: 0.125 µg/mL (≈ 0.224 µM)
[9]
  MIC: 1 µg/mL (≈ 1.79 µM)
[10]
  MIC: 0.5 µg/mL (≈ 0.895 µM)
[11]
  MIC: ≤ 0.0156 µg/mL
[12]
  MIC: ≤ 0.0156 µg/mL
[13]
  MIC: 0.0625 µg/mL (≈ 0.112 µM)
[14]
  MIC: 0.0625 µg/mL (≈ 0.112 µM)
[15]
  MIC: ≤ 0.0156 µg/mL
